Columns and labels:
[1] = target: Dihydroorotate dehydrogenase (quinone), mitochondrial (Homo sapiens, UniProt Q02127); assay: Inhibition of human DHODH
[2] = system: MOLM-13; assay: Antiproliferative activity against human MOLM-13 cells; format: functional, cell-based
[3] = Clearance in C57 mouse at 10 mg/kg, po or 2 mg/kg, iv; format: ADME, organism-based; conditions: in vivo
[4] = Half life in C57 mouse at 10 mg/kg, po or 2 mg/kg, iv; format: ADME, organism-based; conditions: in vivo
[5] = Volume of distribution at steady state in C57 mouse at 10 mg/kg, po or 2 mg/kg, iv; format: ADME, organism-based; conditions: in vivo, read-out: Vdss
[6] = Metabolic stability in human liver microsomes assessed as half life; format: ADME, Microsome
[7] = Plasma protein binding in human assessed as unbound fraction; format: ADME, cell-free
[8] = Oral bioavailability in C57 mouse at 10 mg/kg; format: ADME, organism-based; conditions: in vivo
[9] = Metabolic stability in mouse liver microsomes assessed as half life; format: ADME, Microsome
[10] = Plasma protein binding in mouse assessed as unbound fraction; format: ADME, cell-free

Sequence of Dihydroorotate dehydrogenase (quinone), mitochondrial (Q02127 whole entry): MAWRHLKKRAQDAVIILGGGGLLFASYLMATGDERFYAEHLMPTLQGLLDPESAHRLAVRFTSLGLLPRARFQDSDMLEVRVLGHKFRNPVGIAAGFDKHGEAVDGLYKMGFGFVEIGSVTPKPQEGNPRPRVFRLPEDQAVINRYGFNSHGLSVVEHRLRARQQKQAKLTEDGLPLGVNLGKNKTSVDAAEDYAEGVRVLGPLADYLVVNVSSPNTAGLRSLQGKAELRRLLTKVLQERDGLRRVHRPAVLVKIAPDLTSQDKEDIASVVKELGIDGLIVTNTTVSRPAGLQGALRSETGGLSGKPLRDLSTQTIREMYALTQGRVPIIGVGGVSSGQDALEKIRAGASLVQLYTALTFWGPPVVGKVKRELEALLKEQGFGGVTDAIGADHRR

| IC50 [1] [nM] | IC50 ([2]; Homo sapiens, MOLM-13) [nM] | half-life [6] [h] | half-life [9] [h] | Compound | further results |
| --- | --- | --- | --- | --- | --- |
| 160 | > 3000 |  |  | Cc1c(-c2ccc(-c3ccccc3F)cc2)nc2ccc(F)cc2c1C(F)F |  |
| 1.4 | 23 | > 3 | 0.6 | Cc1c(-c2ccc(-c3ccccc3F)cc2)nc2ccc(F)cc2c1C(=O)NO |  |
| 47 | 128 | 2.25 | 1.08 | Cc1c(-c2ccc(-c3ccccc3F)cc2)nc2ccc(F)cc2c1C(N)=O |  |
| 74 | > 3000 |  |  | Cc1c(-c2ccc(-c3ccccc3F)cc2)nc2ccc(F)cc2c1C(=O)C(F)(F)F |  |
| 808 | 640 |  |  | Cc1c(-c2ccc(-c3ccccc3F)cc2)nc2ccc(F)cc2c1C(O)C(F)(F)F (stereo not given) |  |
| 166 | 700 |  |  | Cc1c(-c2ccc(-c3ccccc3F)cc2)nc2ccc(F)cc2c1CO |  |

The next lines start with the compound.

| Compound | IC50 [1] [nM] | IC50 ([2]; Homo sapiens, MOLM-13) [nM] | half-life [6] [h] | half-life [9] [h] | further results |
| --- | --- | --- | --- | --- | --- |
| Cc1c(-c2ccc(-c3ccccc3F)cc2)nc2ccc(F)cc2c1C(=O)NC#N | 116 | > 3000 |  |  |  |
| CONC(=O)c1c(C)c(-c2ccc(-c3ccccc3F)cc2)nc2ccc(F)cc12 | 0.12 | 9 | > 3 | 0.95 | clearance [3]: 5.09 mL/min/kg; half-life [4]: 2.35 h; Vd [5]: 1.15 L/kg; Fu [7]: 0.55%; bioavailability [8]: 108%; Fu [10]: 0.77% |
| COC(=O)NC(=O)c1c(C)c(-c2ccc(-c3ccccc3F)cc2)nc2ccc(F)cc12 | 1250 | 403 |  |  |  |
| Cc1c(-c2ccc(-c3ccccc3F)cc2)nc2ccc(F)cc2c1C(=O)N(C)O | 7.7 | 5100 |  |  |  |
| Cc1c(-c2ccc(-c3ccccc3F)cc2)nc2ccc(F)cc2c1C(=O)NS(C)(=O)=O | 32 | 300 |  |  |  |
| Cc1c(-c2ccc(-c3ccccc3F)cc2)nc2ccc(F)cc2c1-c1noc(=O)[nH]1 | 1560 | > 3000 |  |  |  |
| Cc1c(-c2ccc(-c3ccccc3F)cc2)nc2ccc(F)cc2c1-c1nnn[nH]1 | 223 | > 3000 |  |  |  |
| CCONC(=O)c1c(C)c(-c2ccc(-c3ccccc3F)cc2)nc2ccc(F)cc12 | 4.2 | 33 | > 3 | 0.3 |  |
| Cc1c(-c2ccc(-c3ccccc3F)cc2)nc2ccc(F)cc2c1C(=O)O [BREQUINAR] |  |  | > 3 | > 3 | clearance [3]: 0.2 mL/min/kg; Vd [5]: 0.3 L/kg; Fu [7]: 0.39%; IC50 ([2]; molm-13): 60 nM; bioavailability [8]: 72%; Fu [10]: 0.73% |
